Laboratory results: PMC4303209, “A novel phosphatidylinositol 3-kinase (PI3K) inhibitor directs a potent FOXO-dependent, p53-independent cell cycle arrest phenotype characterized by the differential induction of a subset of FOXO-regulated genes” (Breast Cancer Research : BCR, 2014)

System: MCF-7 breast cancer cells
Assay: Microarray gene expression analysis (Agilent whole human genome 4 x 44K; compound vs DMSO, LIMMA log2 fold change)
Format: cell-based
Conditions: Apoptosis genes

SMILES: Cn1ncc2c(N3CCOCC3)nc(-c3cccc(O)c3)nc21 [ETP-45658]
- TBX1 log2FC (Gene 6899): -0.252
- TBX5 log2FC (Gene 6910): 0.253
- TBX3 log2FC (Gene 6926): -0.702
- TCF7L2 log2FC (Gene 6934): 0.069
- TDGF1 log2FC (Gene 6997): -0.229
- PRDX2 log2FC (Gene 7001): 0.238
- TERF1 log2FC (Gene 7013): 0.607
- TERT log2FC (Gene 7015): -0.174
- TFAP2A log2FC (Gene 7020): -0.422
- TFAP2B log2FC (Gene 7021): -0.228
- TFAP4 log2FC (Gene 7023): 0.268
- TGFA log2FC (Gene 7039): -0.305
- TGFB1 log2FC (Gene 7040): -0.640
- TGFB3 log2FC (Gene 7043): 0.297
- TGFBR1 log2FC (Gene 7046): 0.107
- TGFBR2 log2FC (Gene 7048): 0.848
- TGM2 log2FC (Gene 7052): -0.663
- THBS1 log2FC (Gene 7057): -0.941
- THRA log2FC (Gene 7067): 0.422
- TIA1 log2FC (Gene 7072): 0.264
- TIAL1 log2FC (Gene 7073): 0.293
- TIAM1 log2FC (Gene 7074): -0.410
- TIMP1 log2FC (Gene 7076): -0.529
- TJP1 log2FC (Gene 7082): 0.201
- TLE1 log2FC (Gene 7088): 0.258
- TLR2 log2FC (Gene 7097): -0.108
- TLR3 log2FC (Gene 7098): 0.853
- NR2E1 log2FC (Gene 7101): -0.094
- TMF1 log2FC (Gene 7110): 0.560
- TNF log2FC (Gene 7124): -1.647
- TNFAIP1 log2FC (Gene 7126): -0.176
- TNFAIP3 log2FC (Gene 7128): -0.659
- TNFRSF1A log2FC (Gene 7132): -1.037
- TOP2A log2FC (Gene 7153): 0.987
- TP53 log2FC (Gene 7157): -0.193
- TP53BP2 log2FC (Gene 7159): 0.300
- TP73 log2FC (Gene 7161): -0.503
- TPD52L1 log2FC (Gene 7164): 0.379
- TPT1 log2FC (Gene 7178): 0.799
- HSP90B1 log2FC (Gene 7184): 0.583
- TRAF1 log2FC (Gene 7185): -0.690
- TRAF3 log2FC (Gene 7187): -0.696
- TRAF5 log2FC (Gene 7188): 0.441
- TRAF6 log2FC (Gene 7189): -0.110
- TRIO log2FC (Gene 7204): 0.329
- TRPS1 log2FC (Gene 7227): 0.712
- PHLDA2 log2FC (Gene 7262): -2.933
- TWIST1 log2FC (Gene 7291): 0.401
- TNFRSF4 log2FC (Gene 7293): -0.061
- TYRO3 log2FC (Gene 7301): -0.084
- UBA52 log2FC (Gene 7311): 0.322
- UBB log2FC (Gene 7314): 0.069
- UBC log2FC (Gene 7316): 0.294
- UBE2B log2FC (Gene 7320): 0.582
- UBE2D3 log2FC (Gene 7323): -0.312
- UCN log2FC (Gene 7349): 0.210
- UCP2 log2FC (Gene 7351): 0.279
- UNG log2FC (Gene 7374): -0.235
- VAV1 log2FC (Gene 7409): 0.573
- VAV2 log2FC (Gene 7410): 0.047
- VCP log2FC (Gene 7415): -0.341
- VDAC1 log2FC (Gene 7416): -0.389
- VDR log2FC (Gene 7421): -0.801
- VEGFB log2FC (Gene 7423): -0.219
- VHL log2FC (Gene 7428): 0.156
- WFS1 log2FC (Gene 7466): -0.738
- WNT5A log2FC (Gene 7474): 0.075
- WNT7A log2FC (Gene 7476): -0.084
- WNT7B log2FC (Gene 7477): -0.527
- WNT10B log2FC (Gene 7480): -0.451
- WNT11 log2FC (Gene 7481): -0.151
- WNT9A log2FC (Gene 7483): 0.073
- WRN log2FC (Gene 7486): 0.441
- WT1 log2FC (Gene 7490): -0.635
- XDH log2FC (Gene 7498): 0.061
- XPA log2FC (Gene 7507): 0.451
- XRCC2 log2FC (Gene 7516): -0.596
- XRCC4 log2FC (Gene 7518): 0.589
- YWHAB log2FC (Gene 7529): 0.414
- YWHAE log2FC (Gene 7531): 0.239
- YWHAG log2FC (Gene 7532): -0.492
- YWHAH log2FC (Gene 7533): -0.469
- YWHAZ log2FC (Gene 7534): -0.139
- ZNF16 log2FC (Gene 7564): 0.343
- PCGF2 log2FC (Gene 7703): -0.266
- DAP3 log2FC (Gene 7818): 0.449
- BTG2 log2FC (Gene 7832): -1.109
- PAX8 log2FC (Gene 7849): 0.414
- FZD5 log2FC (Gene 7855): -0.562
- SCG2 log2FC (Gene 7857): 0.617
- NR4A3 log2FC (Gene 8013): 0.735
- LHX3 log2FC (Gene 8022): 0.038
- RASSF7 log2FC (Gene 8045): 0.255
- FOSL1 log2FC (Gene 8061): -2.502
- CUL5 log2FC (Gene 8065): -0.432
- FXR1 log2FC (Gene 8087): 0.876
- HMGA2 log2FC (Gene 8091): -1.656
- GDF5 log2FC (Gene 8200): -0.419
- RBM10 log2FC (Gene 8241): -0.320
- AXIN1 log2FC (Gene 8312): 0.481
- NME5 log2FC (Gene 8382): 0.189
- PLA2G6 log2FC (Gene 8398): -0.247
- SRPX log2FC (Gene 8406): 0.110
- STK24 log2FC (Gene 8428): -0.121
- NSMAF log2FC (Gene 8439): 0.488
- DYRK2 log2FC (Gene 8445): -0.546
- CUL4A log2FC (Gene 8451): 0.552
- CUL3 log2FC (Gene 8452): 0.137
- CUL2 log2FC (Gene 8453): 0.454
- CUL1 log2FC (Gene 8454): 0.479
- KLF11 log2FC (Gene 8462): 1.337
- OGT log2FC (Gene 8473): 0.232
- IKBKG log2FC (Gene 8517): -0.398
- CBX4 log2FC (Gene 8535): -0.217
- API5 log2FC (Gene 8539): -0.382
- YARS log2FC (Gene 8565): -0.265
- MADD log2FC (Gene 8567): 0.423
- UNC5C log2FC (Gene 8633): -0.082
- AKR1C3 log2FC (Gene 8644): 0.209
- NCOA1 log2FC (Gene 8648): 0.390
- DYNLL1 log2FC (Gene 8655): -0.944
- IRS2 log2FC (Gene 8660): 0.732
- BECN1 log2FC (Gene 8678): 0.486
- PEA15 log2FC (Gene 8682): 0.593
- HYAL2 log2FC (Gene 8692): -0.387
- TRADD log2FC (Gene 8717): 0.340
- TNFRSF25 log2FC (Gene 8718): -0.499
- RIPK1 log2FC (Gene 8737): -0.187
- CRADD log2FC (Gene 8738): -0.101
- HRK log2FC (Gene 8739): 0.385
- RIPK2 log2FC (Gene 8767): 0.592
- TNFRSF6B log2FC (Gene 8771): -1.094
- FADD log2FC (Gene 8772): -0.522
- TNFRSF18 log2FC (Gene 8784): -0.321
- TNFRSF10D log2FC (Gene 8793): -0.444
- TNFRSF10B log2FC (Gene 8795): -0.935
- TNFRSF10A log2FC (Gene 8797): -0.657
- TRIM24 log2FC (Gene 8805): 0.836
- NRP1 log2FC (Gene 8829): -0.517
- SYNGAP1 log2FC (Gene 8831): -0.373
- SOCS2 log2FC (Gene 8835): 0.750
- CFLAR log2FC (Gene 8837): -0.499
- HDAC3 log2FC (Gene 8841): -0.217
- ALKBH1 log2FC (Gene 8846): -0.105
- TSC22D1 log2FC (Gene 8848): 0.485
- CDK5R1 log2FC (Gene 8851): -0.154
- ALDH1A2 log2FC (Gene 8854): 0.218
- IER3 log2FC (Gene 8870): -1.789
- ARHGEF7 log2FC (Gene 8874): 0.162
- SPHK1 log2FC (Gene 8877): -0.334
- SQSTM1 log2FC (Gene 8878): 0.788
- SGPL1 log2FC (Gene 8879): -0.071
- TAX1BP1 log2FC (Gene 8887): 1.376
- BCL10 log2FC (Gene 8915): 0.158
- MBD4 log2FC (Gene 8930): 0.489
- NOL3 log2FC (Gene 8996): 0.514
